Data set [1] is described as follows: Minocycline forced degradation (acid, base, H2O2, light) by HPLC. The class given is physicochemical. From the text:
Measuring the drug molecule's stability is essential as it directly impacts the formulation strategy when designing the drug-loaded nanoparticle.

The conditions of data set [2]: rat models; cited from earlier work.
For data set [3] the following is noted: 35 day observation. Here is the method:
Before treatment, body weight was determined for all the animals. During the course of observation period of 35 days, the animals were followed up twice daily for symptoms of any adverse effect and were physically examined for the sign of morbidity throughout the study period.
On day 0, 15 and 35, all the animals were weighed, and their weights were recorded.

A short description of data set [4]: In vivo toxicity: gross observable behavioral effects (Irwin). Details: species or system rat. Conditions: 35 days.
The conditions of data set [5]: in vivo; cited from earlier work.

A word on the half-life: it is how long it takes for the measured level to halve.

Bounds are passed on as bounds.

Regarding `CN(C)c1ccc(O)c2c1C[C@H]1C[C@H]3[C@H](N(C)C)C(O)=C(C(N)=O)C(=O)[C@@]3(O)C(O)=C1C2=O` [minocycline, Minocycline], the recovery at 1 h, 100 μg/mL was determined as 88.9% in data set [1] (1 M HCl solution, HCl (1 M, 1 h RT)) and 74% in data set [1] (1 M NaOH solution, NaOH (1 M, 1 h RT)). The molecule also registered a recovery at 24 h, 100 μg/mL in data set [1] (UV Light (24 h light exposure)) of 98.54 ± 0.71%. The half-life in data set [2] was 2 to 3 h. Moreover, in data set [3], the “body weight versus saline treated control group” value was “no reduction in body weight”. Besides, in data set [4], the “gross observable behavioral parameters (alertness, visual placing, passivity, spontaneous motor activity, touch response)” value was “mild changes in a few behavioral parameters”.

As for `C[C@H]1C[C@H]2[C@@H]3CCC4=CC(=O)C=C[C@]4(C)[C@@]3(F)[C@@H](O)C[C@]2(C)[C@@]1(O)C(=O)COP(=O)(O)O` [free betamethasone phosphate, betamethasone phosphate], in data set [5], the “time to disappearance from the cochlea” value is no more than 12 h.

The values are drawn from US12329765B2, “Targeted nanoparticle for the treatment of traumatic brain injury and other CNS diseases” (priority 2021, dated 2025).
